Calls of active or inactive are those of the source.
How the values were obtained:
[1] = molecular target: FAD-linked sulfhydryl oxidase ALR (Homo sapiens, UniProt P55789); assay: ALR-catalysed DTT oxidation blockers – biochemical, H2O2 detection, luminescence, cherry-pick, dose response (AID 493248)
[2] = molecular target: Luciferin 4-monooxygenase (Photinus pyralis, UniProt P08659); assay: inhibition of purified Photinus pyralis luciferase – biochemical, luminescence, dose response (AID 1891)
[3] = Luminescence Cell-Based Dose Confirmation HTS to Identify Inhibitors of Platelet Dense Granule Release. [Related pubchem assays: 1663 (Primary HTS), 1678 (Summary of Project)]; format: functional
[4] = Luminescence Cell-Based Dose Confirmation HTS to Identify Activators of 5'UTR Stem-Loop Driven Alpha-Synuclein mRNA Translation in H4 Neuroglioblastoma Cells. [Related pubchem assays: 1829 (Project Summary), 1814 (Primary HTS)]; format: functional
[5] = Luminescence Cell-Based Dose Response HTS to Identify Activators of Luciferase Translation or Activity in H4 […] Cells. [Related pubchem assays: 1829 (Project Summary), 1814 (Primary HTS)]; format: functional
[6] = test system: H4; assay: Luminescence Cell-Based Dose Response HTS to Identify Activators of 5'UTR Stem-Loop Driven Prion Protein mRNA Translation in H4 Neuroglioblastoma Cells. [Related pubchem assays: 1829 (Project Summary), 1814 (Primary HTS)]; format: functional; conditions: Homo sapiens
[7] = molecular target: T1, Heat shock factor protein 1 (Mus musculus, UniProt P38532); assay: decrease of HSF1-responsive luciferase luminescence – cell-based, NIH3T3, dose retest, confirmation (AID 2382); format: functional;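 also: NIH3T3 fibroblasts with HSF1-driven luciferase reporter stressed by proteasome inhibitor MG132; luminescence from HSF1-driven luciferase expression after 8 hours of MG132 stress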
T1 sequence (P38532 whole entry): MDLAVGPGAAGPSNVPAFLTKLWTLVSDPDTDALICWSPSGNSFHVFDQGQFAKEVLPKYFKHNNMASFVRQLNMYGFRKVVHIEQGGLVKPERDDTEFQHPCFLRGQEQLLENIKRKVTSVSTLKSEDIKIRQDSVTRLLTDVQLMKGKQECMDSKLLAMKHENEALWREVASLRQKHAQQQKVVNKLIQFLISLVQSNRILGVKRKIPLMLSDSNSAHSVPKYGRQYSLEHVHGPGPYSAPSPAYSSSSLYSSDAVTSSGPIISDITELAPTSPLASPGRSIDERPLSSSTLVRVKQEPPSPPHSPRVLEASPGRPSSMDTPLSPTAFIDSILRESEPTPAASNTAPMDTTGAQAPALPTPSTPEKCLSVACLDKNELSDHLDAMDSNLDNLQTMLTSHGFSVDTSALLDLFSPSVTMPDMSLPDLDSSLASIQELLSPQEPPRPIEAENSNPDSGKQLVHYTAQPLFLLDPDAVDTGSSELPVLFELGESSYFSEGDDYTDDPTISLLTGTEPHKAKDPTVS

[8] = molecular target: T2, Polyadenylate-binding protein 1 (Homo sapiens, UniProt P11940); assay: MLLE binding blockers, Cy5 peptide tracer – biochemical, fluorescence polarization, Cy5-PAM2 peptide, secondary, miRNA deadenylation inhibitor project, dose response (AID 602260); format: functional; conditions: read-out: IC50_Mean
T2 sequence (P11940 whole entry, the tested form may be a part): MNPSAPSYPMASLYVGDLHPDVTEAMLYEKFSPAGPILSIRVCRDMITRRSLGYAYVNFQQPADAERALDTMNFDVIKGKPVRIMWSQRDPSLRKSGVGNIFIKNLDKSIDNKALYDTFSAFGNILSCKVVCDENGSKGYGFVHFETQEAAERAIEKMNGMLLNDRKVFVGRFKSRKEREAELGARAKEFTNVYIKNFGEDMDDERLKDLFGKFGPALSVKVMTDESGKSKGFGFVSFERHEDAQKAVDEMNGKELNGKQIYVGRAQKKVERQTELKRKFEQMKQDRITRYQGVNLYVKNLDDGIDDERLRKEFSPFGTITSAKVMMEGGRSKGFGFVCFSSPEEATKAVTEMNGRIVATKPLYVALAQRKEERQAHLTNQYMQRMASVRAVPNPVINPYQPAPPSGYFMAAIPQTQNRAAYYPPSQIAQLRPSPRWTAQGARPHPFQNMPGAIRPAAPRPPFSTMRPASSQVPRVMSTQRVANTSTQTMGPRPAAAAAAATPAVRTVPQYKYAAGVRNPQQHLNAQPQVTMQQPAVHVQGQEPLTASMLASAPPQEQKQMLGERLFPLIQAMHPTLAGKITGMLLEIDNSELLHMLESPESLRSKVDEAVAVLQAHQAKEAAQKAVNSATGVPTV

[9] = molecular target: T2, Polyadenylate-binding protein 1; assay: MLLE domain peptide-binding blockers, IC50 – biochemical, fluorescence polarization, FITC-PAM2 peptide, dose response (AID 602259); format: functional; conditions: read-out: IC50_Mean
[10] = viability of PTEN-deleted HCT116 cells – cell-based, HCT116 PTEN knockout, dose response (AID 1047); format: functional;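 also: HCT116 colon tumor cells with PTEN knocked out; cells exposed to compound for 60 hours before readout; potency for loss of cell viability measured by luminescence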
[11] = viability of HCT116 lacking mutant beta-catenin – cell-based, human colon tumor, dose response (AID 1045); format: functional;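 also: HCT116 colon tumor cells with beta catenin knocked out; cells exposed to compound for 60 hours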
[12] = viability of uninfected HEp-2 cells – cell-based, HTS, cytotoxicity control for RSV inhibitor project, dose response (AID 2410); format: functional; conditions: human respiratory syncytial virus
[13] = Luminescence Cell-Based Dose Retest to Confirm Inhibitors of Cancer Stem Cells. [Related pubchem assays (depositor defined):AID2717, AID2721]; format: functional; conditions: Homo sapiens
[14] = molecular target: T3, Cytochrome P450 1A2 (Homo sapiens, UniProt P05177);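 also: PubChem cytochrome P450 panel assay, CYP1A2 panel member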
T3 sequence (P05177 whole entry): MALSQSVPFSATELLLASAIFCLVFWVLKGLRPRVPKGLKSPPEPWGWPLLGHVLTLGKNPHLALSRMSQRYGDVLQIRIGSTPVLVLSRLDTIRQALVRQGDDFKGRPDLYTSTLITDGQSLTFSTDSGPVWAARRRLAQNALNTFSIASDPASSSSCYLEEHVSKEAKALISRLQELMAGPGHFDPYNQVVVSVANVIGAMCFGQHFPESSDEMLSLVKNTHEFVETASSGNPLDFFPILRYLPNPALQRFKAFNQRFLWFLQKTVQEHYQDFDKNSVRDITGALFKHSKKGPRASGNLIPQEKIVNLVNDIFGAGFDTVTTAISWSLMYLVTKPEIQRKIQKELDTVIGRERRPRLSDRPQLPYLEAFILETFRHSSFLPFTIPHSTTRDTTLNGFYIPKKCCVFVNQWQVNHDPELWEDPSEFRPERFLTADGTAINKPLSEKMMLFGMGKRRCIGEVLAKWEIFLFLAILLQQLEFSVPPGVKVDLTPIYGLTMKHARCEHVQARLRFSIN

[15] = molecular target: Cytochrome P450 2C19 (Homo sapiens, UniProt P33261); assay: Cytochrome panel assay with activity outcomes. Panel member name: p450-cyp2c19 Compounds with AC50 equal or less than 10 uM are considered active; format: functional
Sequence of Cytochrome P450 2C19 (P33261 whole entry): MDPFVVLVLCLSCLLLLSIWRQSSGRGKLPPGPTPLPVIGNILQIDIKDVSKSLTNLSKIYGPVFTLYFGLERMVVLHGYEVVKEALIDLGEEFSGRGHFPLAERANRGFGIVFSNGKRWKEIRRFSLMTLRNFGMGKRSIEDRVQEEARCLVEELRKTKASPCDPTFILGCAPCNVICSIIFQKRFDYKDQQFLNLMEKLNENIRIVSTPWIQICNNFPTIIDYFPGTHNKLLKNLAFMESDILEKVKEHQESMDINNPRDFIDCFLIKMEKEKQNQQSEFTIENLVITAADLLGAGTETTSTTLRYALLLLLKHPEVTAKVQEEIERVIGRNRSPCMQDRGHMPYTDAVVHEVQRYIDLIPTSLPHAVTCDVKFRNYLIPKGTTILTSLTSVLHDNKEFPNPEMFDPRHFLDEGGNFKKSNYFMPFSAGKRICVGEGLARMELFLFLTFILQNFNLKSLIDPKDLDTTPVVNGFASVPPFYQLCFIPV

[16] = molecular target: Cytochrome P450 2C9 (Homo sapiens, UniProt P11712)
Sequence of Cytochrome P450 2C9 (P11712 whole entry): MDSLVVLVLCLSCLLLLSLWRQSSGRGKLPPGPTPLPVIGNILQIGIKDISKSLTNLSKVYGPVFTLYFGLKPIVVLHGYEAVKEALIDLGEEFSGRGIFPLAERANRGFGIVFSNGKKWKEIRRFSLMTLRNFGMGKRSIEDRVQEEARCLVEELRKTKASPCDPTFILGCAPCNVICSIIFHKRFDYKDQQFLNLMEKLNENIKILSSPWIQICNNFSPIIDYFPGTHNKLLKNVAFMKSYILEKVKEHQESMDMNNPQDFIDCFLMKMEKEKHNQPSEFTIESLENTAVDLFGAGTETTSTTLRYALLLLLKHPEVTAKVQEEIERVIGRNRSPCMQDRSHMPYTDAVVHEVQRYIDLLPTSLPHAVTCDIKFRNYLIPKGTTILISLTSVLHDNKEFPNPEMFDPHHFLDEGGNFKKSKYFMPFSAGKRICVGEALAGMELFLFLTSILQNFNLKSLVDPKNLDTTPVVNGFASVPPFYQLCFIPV

Sequence of Luciferin 4-monooxygenase (P08659 whole entry): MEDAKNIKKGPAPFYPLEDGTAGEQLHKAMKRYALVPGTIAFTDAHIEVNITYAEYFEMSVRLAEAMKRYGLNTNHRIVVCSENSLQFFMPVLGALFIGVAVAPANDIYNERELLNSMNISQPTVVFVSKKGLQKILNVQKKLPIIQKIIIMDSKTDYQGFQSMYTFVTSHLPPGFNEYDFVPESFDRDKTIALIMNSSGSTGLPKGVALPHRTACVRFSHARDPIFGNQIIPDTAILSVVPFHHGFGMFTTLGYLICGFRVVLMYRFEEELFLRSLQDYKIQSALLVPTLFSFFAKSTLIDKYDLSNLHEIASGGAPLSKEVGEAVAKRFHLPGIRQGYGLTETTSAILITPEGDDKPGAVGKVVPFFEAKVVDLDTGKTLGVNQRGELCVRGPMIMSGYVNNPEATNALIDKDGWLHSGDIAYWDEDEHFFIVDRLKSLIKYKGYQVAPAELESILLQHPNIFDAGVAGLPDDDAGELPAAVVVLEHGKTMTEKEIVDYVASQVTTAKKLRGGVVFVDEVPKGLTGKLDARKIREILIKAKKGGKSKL
Sequence of FAD-linked sulfhydryl oxidase ALR (P55789 whole entry): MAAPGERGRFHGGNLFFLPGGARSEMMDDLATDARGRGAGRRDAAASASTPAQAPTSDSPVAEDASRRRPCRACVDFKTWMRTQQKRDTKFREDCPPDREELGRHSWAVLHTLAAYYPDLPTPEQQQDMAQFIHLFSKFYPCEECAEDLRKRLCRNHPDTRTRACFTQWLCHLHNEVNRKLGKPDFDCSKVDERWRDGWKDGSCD

## O=P(CN1CCN(c2ccccc2)CC1)(N1CCCCC1)N1CCCCC1
[1]
  AC50: 0.656 µM (active)

## COc1cccc(Nc2c(F)c(F)c(F)c(F)c2C(=O)O)c1
[1]
  AC50: 4.26 µM (active)

## CCOC(=O)C1CCN(C(=O)CCc2nnc3ccc(NCc4ccco4)nn23)CC1
[2]
  EC50: > 112 µM (not active)
[3]
  EC50: > 112 µM (not active)

## Cn1cc(C(=O)N2CCCC(Nc3ccc(F)cc3)C2)c2ccccc21 (stereo unspecified)
[1]
  AC50: 1.5 µM (active)

## O=C(COC(=O)c1ccccc1-n1cnnn1)c1ccc(F)cc1
[4]
  EC50: 4.44 µM (active)
[5]
  EC50: 7.61 µM (active)
[6]
  EC50: 31.3 µM (active)
[7]
  EC50: 50.2 µM (active)

## Cn1sc(NC(=O)c2cccc(Cl)c2)nc1=O
[4]
  EC50: 12.8 µM (active)
[5]
  EC50: 7.11 µM (active)
[6]
  EC50: > 120 µM (not active)

## O=C(O)Cn1cc(C(=S)N2CCCCC2)c2ccccc21
[1]
  AC50: 0.407 µM (active)

## O=C(CN1C(=O)NC2(CCCCCC2)C1=O)c1ccccc1
[2]
  EC50: > 112 µM (not active)
[3]
  EC50: > 112 µM (not active)

## Cc1ccc(CN(C(=O)c2csnn2)C(C(=O)NC2CCCC2)c2ccco2)cc1 (stereo unspecified)
[2]
  EC50: > 112 µM (not active)
[3]
  EC50: > 112 µM (not active)

## CC1CN=C(NC(=O)c2cccc([N+](=O)[O-])c2)S1 (stereo unspecified)
[8]
  IC50: > 66 µM (inactive)
[9]
  IC50: > 66 µM (inactive)

## COc1ccc(NC(=O)c2nc3nc(C)cc(C(F)F)n3n2)cc1OC
[2]
  EC50: 18.9 µM (active)
[3]
  EC50: > 112 µM (not active)

## COc1ccc(S(=O)(=O)Cc2ccc(C(=O)N3CCN(c4ccc(Cl)cc4)CC3)o2)cc1
[10]
  EC50: 16.3 µM (active)
[11]
  EC50: 38.8 µM (active)
[1]
  AC50: 5.64 µM (active)

## COc1ccc(-c2c(C#Cc3ccccc3)c3ccccc3n2C)cc1
[12]
  CC50: 44 µM (active)
[4]
  EC50: 19.6 µM (active)
[5]
  EC50: 22.1 µM (active)
[6]
  EC50: 43.1 µM (active)

## [O-][n+]1cc(-c2cc3ccccc3o2)[n+]([O-])c2c1CCCC2
[4]
  EC50: > 60 µM (not active)
[5]
  EC50: 8.68 µM (active)
[6]
  EC50: 2.05 µM (active)

## CN(C)c1nc(-c2cn(CCC#N)c3ccccc23)cs1
[8]
  IC50: > 66 µM (inactive)
[9]
  IC50: 56.9 µM (inactive)

## COc1ccc(OC)c(NC(=O)CS(=O)(=O)Cc2nc(-c3ccccc3C)oc2C)c1
[2]
  EC50: > 112 µM (not active)
[3]
  EC50: > 112 µM (not active)

## CCOC(=O)c1c(NC(=O)/C=C/c2ccc3c(c2)OCO3)sc(C)c1CC
[2]
  EC50: > 112 µM (not active)
[3]
  EC50: > 112 µM (not active)
[13]
  AC50: 1.04 µM (active)
[14]
  AC50: 12.6 µM (inconclusive)

## CC(C)CN(C(=O)COC(=O)c1ccc2c(c1)NC(=O)CS2)C1CCS(=O)(=O)C1 (stereo unspecified)
[8]
  IC50: > 66 µM (inactive)
[9]
  IC50: > 66 µM (inactive)

## CCOC(=O)Cc1cnc(S)nc1O
[8]
  IC50: > 66 µM (inactive)
[9]
  IC50: > 66 µM (inactive)

## Cc1ccc(C(=O)Nc2ccnc(-c3cccnc3)n2)cc1
[4]
  EC50: 13.3 µM (active)
[5]
  EC50: 16.1 µM (active)
[6]
  EC50: 15.4 µM (active)

## Cc1nc(S(=O)(=O)N2CCOCC2)c(C#N)c(C)c1Cl
[4]
  EC50: 10.7 µM (active)
[5]
  EC50: 55.7 µM (active)
[6]
  EC50: > 120 µM (not active)
[15]
  AC50: inconclusive
[14]
  AC50: 1 µM (inconclusive)

## Cc1cc(/C(O)=C(/C([S-])=Nc2ccc(F)cc2)[n+]2ccccc2)c(C)n1-c1ccc(F)cc1
[4]
  EC50: > 120 µM (not active)
[5]
  EC50: 16.1 µM (active)
[6]
  EC50: 21.1 µM (active)

## Cc1ccc(NC(=O)CN(c2ccc3c(c2)OCO3)S(=O)(=O)c2c(C)n[nH]c2C)cc1
[1]
  AC50: > 100 µM (inactive)

## N#Cc1c2n(c(=S)n(-c3ccccc3[N+](=O)[O-])c1=O)CCCCC2
[8]
  IC50: > 66 µM (inactive)
[9]
  IC50: > 66 µM (inactive)

## COc1cccc(Nc2ccc(C(=O)O)cc2N)c1
[7]
  EC50: > 195 µM (not active)
[1]
  AC50: 1.17 µM (active)

## CC(=O)c1c(C)nc2nonc2c1N
[2]
  EC50: > 112 µM (not active)
[3]
  EC50: 26.6 µM (active)

## CCOc1ccc2[nH]c(SCC3CC3(Cl)Cl)nc2c1 (stereo unspecified)
[4]
  EC50: 0.506 µM (active)
[5]
  EC50: 29.7 µM (active)
[6]
  EC50: 30.2 µM (active)

## NCCCCCc1nnc(SCc2ccc(Cl)cc2Cl)o1
[1]
  AC50: 2.63 µM (active)
[16]
  AC50: 14.1 µM (inconclusive)

## Cc1cc(C)c2cc(CN(Cc3ccco3)C(=O)NCc3ccccc3)c(O)nc2c1
[2]
  EC50: > 112 µM (not active)
[3]
  EC50: > 112 µM (not active)

## O=C(CSc1cn(Cc2ccccc2)c2ccccc12)N1CCOCC1
[4]
  EC50: 20.9 µM (active)
[5]
  EC50: 19.8 µM (active)
[6]
  EC50: 16.8 µM (active)

## CCc1c(C(C)S(=O)(=O)c2ccccc2)nc(O)n1CC (stereo unspecified)
[8]
  IC50: > 66 µM (inactive)
[9]
  IC50: > 66 µM (inactive)

## O=C1NCCCc2c1oc1cc(Br)c(O)c(Br)c21
[1]
  AC50: 3.5 µM (active)

## CN1CCN(C(=S)c2ccc(N(C)C)cc2)CC1
[1]
  AC50: 1.45 µM (active)

## CCN1C(=O)[C@@H]2[C@@H](c3ccc(SC4CCCCC4)cc3)N3CCC[C@@]3(C(=O)OC)[C@@H]2C1=O
[8]
  IC50: > 66 µM (inactive)
[9]
  IC50: > 66 µM (inactive)

## CN(C)c1ccc(/C=N/NC(=O)c2ccco2)cc1
[1]
  AC50: 6.78 µM (active)

## C[C@]12CCC(=O)C=C1CC[C@@H]1[C@@H]2[C@@H](O)C[C@]2(C=O)[C@@H](C(=O)CO)CC[C@@H]12 [ALDOSTERONE]
[4]
  EC50: > 120 µM (not active)
[5]
  EC50: > 120 µM (not active)
[6]
  EC50: > 120 µM (not active)

Reference: ChEMBL document CHEMBL1201862, “PubChem BioAssay data set” (2004)
